{
  "source": "patent US20220257559A1",
  "about": "“INTESTINAL MICROBIOME-IMPROVING COMPOSITION INCLUDING ELLAGIC ACID AS ACTIVE INGREDIENT” (Andong National University Industry-Academic Cooperation …, priority 2021, published 2022)",
  "format_in_all_cases": "in vivo",
  "key": {"cecal microbiota": {"system": "cecal microbiota", "test": "cecal microbiota 16S sequencing, alcohol exposure and EA pretreatment in mice", "protocol": "All animal testing procedures were performed in accordance with Andong National University's small animal testing guidelines, and were approved by the Andong National University Animal Care and Use Committee. All mice were housed where food and water were provided autonomously, and lighting was controlled (12-hour light/dark cycle). The ellagic acid was orally administered to 6-week-old female C57BL/6J mice at a daily dose of 60 mg/Kg as a physiologically and clinically relevant dose, and 200 mg/Kg silymarin was administered as a positive control. Water was orally administered to control mice. After the administration of ellagic acid for 14 days, alcohol or dextrose (control) was orally administered to some of the mice at a dose of 5 g/Kg, three times at 12-hour intervals. The mice were […] 1 hour after the last administration. Fecal samples were aseptically collected from the cecum of each mouse and frozen at -80° C. DNA was extracted using the Mag-Bind Universal Pathogen DNA Kit (Chunlab, Seoul, South Korea) according to the manufacturer's instructions. DNA sequencing of bacterial 16S rRNA in each fecal sample was performed at Chunlab (https://www.chunlab.com/). Intestinal microbiome and bacterial products have been associated with liver diseases (ALD). To evaluate the effect of ellagic acid (EA) on the intestinal microbial distribution in an alcoholic liver disease model, the cecal microbiota according to alcohol exposure and EA pretreatment in mice was evaluated according to the experimental design of FIG. 1. […] However, in the case of the alcohol exposure group, Verrucomicrobia phylum increased whereas Firmicutes phylum decreased."}, "plasma endotoxin": {"system": "plasma endotoxin", "test": "plasma endotoxin level (LAL chromogenic kit) in alcohol-exposed mice", "settings": "EA-pretreated group vs alcohol-exposed group; EA 60 mg/Kg daily oral 14 days; FIG. 7", "protocol": "(§1) All animal testing procedures were performed in accordance with Andong National University's small animal testing guidelines, and were approved by the Andong National University Animal Care and Use Committee. All mice were housed where food and water were provided autonomously, and lighting was controlled (12-hour light/dark cycle). The ellagic acid was orally administered to 6-week-old female C57BL/6J mice at a daily dose of 60 mg/Kg as a physiologically and clinically relevant dose, and 200 mg/Kg silymarin was administered as a positive control. Water was orally administered to control mice. After the administration of ellagic acid for 14 days, alcohol or dextrose (control) was orally administered to some of the mice at a dose of 5 g/Kg, three times at 12-hour intervals. The mice were sacrificied 1 hour after the last administration.\nPlasma endotoxin levels were measured using a commercial endpoint LAL Chromogenic Endotoxin Quantitation Kit manufactured by Thermo Fisher Scientific (Waltham, Mass.) and having a concentration range of 0.015 to 1.2 EU/mL.\n(§2) Intestinal microbial products can be stimulated by intestinal leak and endotoxins. Plasma endotoxin and intestinal TNF-α levels were measured to determine whether ellagic acid (EA)-mediated prophylaxis occurred at altered levels of microbial composition."}, "TNF-α": {"system": "TNF-α", "test": "intestinal TNF-α level (ELISA) in alcohol-exposed mice", "settings": "EA pretreatment vs alcohol-exposed group; EA 60 mg/Kg daily oral 14 days; FIG. 8", "protocol": "as §1\nLiver solutions were analyzed using an ELISA kit for TNF-α, manufactured by Abcam (Cambridge, United Kingdom), according to the manufacturer's instructions. To use equal amounts of protein for the ELISA, protein concentration was measured with BCA reagent manufactured by BioRad (Hercules, Calif.). […]\nas §2"}, "[1]": {"system": "CYP2E1, iNOS, and 3-NT proteins in the intestine", "test": "intestinal oxidative stress marker proteins (immunoblot) in alcohol-exposed mice", "settings": "EA-pretreated group vs alcohol-exposed group; FIG. 9", "experimental": "Portions of liver tissue and small intestine from each mouse were homogenized with RIPA buffer. Equally pooled protein in an amount of 50 ug collected from different mouse samples within the same group were separated by SDS/PAGE and transferred to nitrocellulose membranes. These membranes were incubated with polyclonal antibodies against CYP2E1 (1:5,000 dilution; Abcam), p-JNK (1:1,000 dilution; Cell Signaling), 3-NT (1:5,000 dilution; Abcam), iNOS (1:5,000 dilution; Abcam), cleaved caspase-3 (1:1,000 dilution; Cell Signaling), ZO-1 (1:5,000 dilution; Abcam), and claudin-1 (1:1,000 dilution; Thermo Fisher). Each mouse monoclonal antibody against JNK (1:1,000 dilution; Cell Signaling), Bax (1:1,000 dilution; Santa Cruz Biotechnology), or +-actin (1:10,000 dilution; Santa Cruz Biotechnology) was used to detect specific antigenic targets. […] Relative protein images were determined using the HRP-binding secondary antibody and an ECL substrate (Thermo Fishers). The intensity of immune response bands was quantified by density using ImageJ software (National Institutes of Health).\nTo evaluate the effect of ellagic acid on intestinal oxidative stress, the expression levels of CYP2E1, iNOS, and 3-NT proteins were measured."}, "ZO-1 and β-catenin": {"system": "ZO-1 and β-catenin", "test": "intestinal tight junction (TJ) and anchoring junction (AJ) protein expression in alcohol-exposed mice", "settings": "EA-pretreated group within the alcohol-exposed group; FIG. 10", "protocol": "as §1, with “After the administration of ellagic acid for 14 days, alcohol or dextrose (control) was orally administered to some of the mice at a dose of 5 g/Kg, three times at 12-hour intervals. The mice were sacrificied 1 hour after the last administration.” left out\nPortions of liver tissue and small intestine from each mouse were homogenized with RIPA buffer. […] Relative protein images were determined using the HRP-binding secondary antibody and an ECL substrate (Thermo Fishers). The intensity of immune response bands was quantified by density using ImageJ software (National Institutes of Health).\n(§3) Changes in the expression of intestinal tight junction (TJ) and anchoring junction (AJ) proteins are observed in mouse models with alcohol-induced intestinal leak. To evaluate whether ellagic acid (EA) prevents alcohol-induced intestinal leakage, the expression levels of intestinal TJ and AJ proteins after the ellagic acid administration were measured."}, "intestinal cells": {"system": "intestinal cells", "test": "apoptosis of intestinal cells in alcohol-exposed mice", "settings": "EA pretreatment group, alcohol-induced; FIG. 11", "protocol": "as §1\nSmall intestine and liver specimens were fixed overnight in 10% buffered formalin and embedded in paraffin. […]\nas §3"}, "[2]": {"system": "fat accumulation in the liver", "test": "liver histology (H/E and Oil Red O staining) in alcohol-exposed mice", "settings": "EA-pretreated group vs alcohol-exposed group, FIGS. 12 and 13", "protocol": "as §1\n(§4) Portions of the largest liver lobes or small intestines from the mice pretreated with ellagic acid and from the controls were fixed in neutral formalin. […] Plasma ALT levels of each mouse were measured using a standard endpoint colorimetric assay kit (Bio Vision, Milpitas, Calif.).\n(§5) To evaluate the effect of ellagic acid (EA) on hepatic fat accumulation, and plasma ALT and hepatic triglyceride levels, liver tissues taken from mouse models were histologically analyzed through H/E staining and Oil Red O staining."}, "[3]": {"system": "hepatic triglyceride (TG)", "test": "hepatic triglyceride (TG) level in alcohol-exposed mice", "settings": "EA-pretreated group vs alcohol-exposed group; FIG. 14", "protocol": "as §1\nThe level of triglyceride (TG) in the liver was measured using a commercially available kit manufactured by Asan Co., Ltd. (Gimpo, South Korea).\nas §5"}, "plasma ALT": {"system": "plasma ALT", "test": "plasma ALT level in alcohol-exposed mice", "settings": "EA-pretreated group vs alcohol-exposed group; FIG. 15", "protocol": "as §1, §4, §5"}, "[4]": {"test": "blood alcohol concentration (BAC) in alcohol-exposed mice", "settings": "EA-pretreated group; FIG. 16", "protocol": "as §1\n(§6) Levels of plasma ROS were visualized with 2′,7′-dichlorofluorescein diacetate (DCFH-DA) purchased from Thermo Fisher Scientific. After the DCFH-DA was incubated at 37° C. for 20 minutes, DCFH-DA fluorescence was measured. Plasma alcohol levels were measured using a commercially available kit manufactured by BioVision.\nas §5"}, "[5]": {"system": "CYP2E1, iNOS and 3-NT proteins in the liver", "test": "hepatic CYP2E1 expression and activity and oxidative stress marker proteins in alcohol-exposed mice", "experimental": "CYP2E1 Activity Analysis Liver solutions were each analyzed with an ELISA kit for CYP2E1, manufactured by Claud-clone corporation (Houston, Tex.), according to the manufacturer's instructions.\nPortions of liver tissue and small intestine from each mouse were homogenized with RIPA buffer. Equally pooled protein in an amount of 50 ug collected from different mouse samples within the same group were separated by SDS/PAGE and transferred to nitrocellulose membranes. These membranes were incubated with polyclonal antibodies against CYP2E1 (1:5,000 dilution; Abcam), p-JNK (1:1,000 dilution; Cell Signaling), 3-NT (1:5,000 dilution; Abcam), iNOS (1:5,000 dilution; Abcam), cleaved caspase-3 (1:1,000 dilution; Cell Signaling), ZO-1 (1:5,000 dilution; Abcam), and claudin-1 (1:1,000 dilution; Thermo Fisher). Each mouse monoclonal antibody against JNK (1:1,000 dilution; Cell Signaling), Bax (1:1,000 dilution; Santa Cruz Biotechnology), or +-actin (1:10,000 dilution; Santa Cruz Biotechnology) was used to detect specific antigenic targets. After washing the nitrocellulose membranes three times with PBS at 10-minute intervals, horseradish peroxidase (HRP)-conjugated anti-rabbit or anti-mouse IgG (manufactured by Santa Cruz Biotechnology) was diluted at a ratio of 1:5,000 and used as a secondary antibody. Relative protein images were determined using the HRP-binding secondary antibody and an ECL substrate (Thermo Fishers). The intensity of immune response bands was quantified by density using ImageJ software (National Institutes of Health).\nTo evaluate the effect of ellagic acid (EA) on hepatic oxidative stress, the expression and activity levels of CYP2E1 proteins were measured."}, "plasma ROS": {"system": "plasma ROS", "test": "plasma ROS level (DCFH-DA) in alcohol-exposed mice", "settings": "FIG. 18", "protocol": "as §1, §6\nCYP2E1 generates reactive oxygen species (ROS) in alcoholic and nonalcoholic liver disease."}, "[6]": {"system": "p-JNK, Bax, cleaved caspase-3 in the liver", "test": "liver apoptosis markers (Western blot, cleaved caspase-3 staining, TUNEL) in alcohol-exposed mice", "protocol": "as §1\nPortions of liver tissue and small intestine from each mouse were homogenized with RIPA buffer. Equally pooled protein in an amount of 50 ug collected from different mouse samples within the same group were separated by SDS/PAGE and transferred to nitrocellulose membranes. These membranes were incubated with polyclonal antibodies against CYP2E1 (1:5,000 dilution; Abcam), p-JNK (1:1,000 dilution; Cell Signaling), 3-NT (1:5,000 dilution; Abcam), iNOS (1:5,000 dilution; Abcam), cleaved caspase-3 (1:1,000 dilution; Cell Signaling), ZO-1 (1:5,000 dilution; Abcam), and claudin-1 (1:1,000 dilution; Thermo Fisher). Each mouse monoclonal antibody against JNK (1:1,000 dilution; Cell Signaling), Bax (1:1,000 dilution; Santa Cruz Biotechnology), or […] (1:10,000 dilution; Santa Cruz Biotechnology) was used to detect specific antigenic targets. […] Relative protein images were determined using the HRP-binding secondary antibody and an ECL substrate (Thermo Fishers). The intensity of immune response bands was quantified by density using ImageJ software (National Institutes of Health). […]"}, "[7]": {"settings": "summary statement, alcohol intake"}, "[8]": {"settings": "EA-pretreated group vs alcohol-exposed group, FIGS. 17 and 19"}, "[9]": {"settings": "EA-pretreated group vs alcohol-exposed mice, FIG. 19"}, "[10]": {"settings": "EA-pretreated group vs alcohol-exposed group, Western blot, FIG. 20"}},
  "data": [
    {"smiles": "O=c1oc2c(O)c(O)cc3c(=O)oc4c(O)c(O)cc1c4c23", "note": "[ellagic acid]", "values": [
      {"measurement": "gene of the genus Bacteroides", "setting": "cecal microbiota; EA-pretreated mice vs alcohol-exposed group, EA 60 mg/Kg daily oral 14 days, alcohol 5 g/Kg three times, FIG. 4", "value": "decreased"},
      {"measurement": "gene level of E. coli", "setting": "cecal microbiota; EA-pretreated mice vs alcohol-exposed group, EA 60 mg/Kg daily oral 14 days, alcohol 5 g/Kg three times, FIG. 5", "value": "decreased to a level similar to that of the control group"},
      {"measurement": "change in intestinal microbial distribution at the phylum level", "setting": "cecal microbiota; control group and EA pretreatment group, EA 60 mg/Kg daily oral 14 days, female C57BL/6J mice, FIGS. 2 and 3", "value": "no significant change"},
      {"measurement": "growth of Bacteroidetes (harmful bacteria) attributable to alcohol intake", "setting": "cecal microbiota; [7]", "value": "inhibits the growth"},
      {"measurement": "growth of Firmicutes (beneficial bacteria)", "setting": "cecal microbiota; [7]", "value": "increases the growth"},
      {"measurement": "growth of Verrucomicrobia (harmful bacteria) attributable to alcohol intake", "setting": "cecal microbiota; [7]", "value": "inhibits the growth"},
      {"measurement": "alcohol-induced increase in plasma endotoxin concentration", "setting": "plasma endotoxin", "value": "suppressed"},
      {"measurement": "alcohol-induced increase in intestinal TNF-α level", "setting": "TNF-α", "value": "suppressed"},
      {"measurement": "level of 3-NT proteins in the intestine", "setting": "[1]", "value": "decreased"},
      {"measurement": "level of CYP2E1 protein in the intestine", "setting": "[1]", "value": "decreased"},
      {"measurement": "level of iNOS protein in the intestine", "setting": "[1]", "value": "decreased"},
      {"measurement": "level of intestinal ZO-1", "setting": "ZO-1 and β-catenin", "value": "recovery"},
      {"measurement": "level of intestinal β-catenin", "setting": "ZO-1 and β-catenin", "value": "recovery"},
      {"measurement": "apoptosis of intestinal cells", "setting": "intestinal cells", "value": "decrease"},
      {"measurement": "fat accumulation in the liver", "setting": "[2]", "value": "decreased"},
      {"measurement": "hepatic triglyceride (TG) level", "setting": "[3]", "value": "decreased"},
      {"measurement": "plasma ALT level", "setting": "plasma ALT", "value": "decreased"},
      {"measurement": "increase in blood alcohol concentration (BAC) caused by alcohol intake", "setting": "[4]", "value": "suppressed"},
      {"measurement": "activity level of CYP2E1 proteins in the liver", "setting": "[5]; [8]", "value": "decreased"},
      {"measurement": "expression level of CYP2E1 proteins in the liver", "setting": "[5]; [8]", "value": "decreased"},
      {"measurement": "hepatic 3-NT proteins", "setting": "[5]; [9]", "value": "decreased"},
      {"measurement": "hepatic inducible nitric oxide synthase (iNOS) protein", "setting": "[5]; [9]", "value": "decreased"},
      {"measurement": "increase in the level of plasma ROS attributable to alcohol intake", "setting": "plasma ROS", "value": "suppressed"},
      {"measurement": "Bax (apoptosis marker protein) in the liver", "setting": "[6]; [10]", "value": "decreased"},
      {"measurement": "p-JNK (apoptosis marker protein) in the liver", "setting": "[6]; [10]", "value": "decreased"},
      {"measurement": "apoptosis marker proteins by cleaved caspase-3 staining and TUNEL analysis in the liver", "setting": "[6]; EA-pretreated group vs mice exposed to alcohol, FIGS. 21 and 22", "value": "decreased"}
    ]}
  ]
}
